Values after ≈ are worked out from the molar mass of the structure shown.
Assays:
Candida albicans [1] = experiment: Antifungal activity against Candida albicans ATCC SC5314 assessed as fungal growth inhibition by NCCLS protocol based method; format: functional
Candida albicans [2] = experiment: Antifungal activity against Candida albicans CPCC400616 assessed as fungal growth inhibition by NCCLS protocol based method; format: functional
Candida tropicalis = experiment: Antifungal activity against Candida tropicalis CGMCC 2.3739 assessed as fungal growth inhibition by NCCLS protocol based method; format: functional
Cryptococcus neoformans = experiment: Antifungal activity against Cryptococcus neoformans CGMCC 2.3161 assessed as fungal growth inhibition by NCCLS protocol based method; format: functional
Candida parapsilosis = experiment: Antifungal activity against Candida parapsilosis GIM2.190 assessed as fungal growth inhibition by NCCLS protocol based method; format: functional; settings: Lodderomyces parapsilosis
Nakaseomyces glabratus = experiment: Antifungal activity against Candida glabrata clinical isolate assessed as fungal growth inhibition by NCCLS protocol based method; format: functional
Pichia kudriavzevii = experiment: Antifungal activity against Candida krusei GIM2.1 assessed as fungal growth inhibition by NCCLS protocol based method; format: functional
Aspergillus fumigatus = experiment: Antifungal activity against Aspergillus fumigatus CGMCC3.7795 assessed as fungal growth inhibition by NCCLS protocol based method; format: functional
Candida albicans [3] = experiment: Antifungal activity against FLC-resistant Candida albicans CaR assessed as fungal growth inhibition by NCCLS protocol based method; format: functional
Candida albicans [4] = experiment: Antifungal activity against FLC-resistant Candida albicans 901 assessed as fungal growth inhibition by NCCLS protocol based method; format: functional
Candida albicans [5] = experiment: Antifungal activity against FLC-resistant Candida albicans 904 assessed as fungal growth inhibition by NCCLS protocol based method; format: functional
Candida albicans [6] = experiment: Antifungal activity against FLC-resistant Candida albicans 632 assessed as fungal growth inhibition by NCCLS protocol based method; format: functional
Candida albicans [7] = experiment: Antifungal activity against FLC-resistant Candida albicans 100 assessed as fungal growth inhibition by NCCLS protocol based method; format: functional
Candida albicans [8] = experiment: Antifungal activity against FLC-resistant Candida albicans 103 assessed as fungal growth inhibition by NCCLS protocol based method; format: functional
Candida albicans [9] = experiment: Antifungal activity against FLC-resistant Candida albicans 311 assessed as fungal growth inhibition by NCCLS protocol based method; format: functional
Candida albicans [10] = experiment: Antibiofilm activity against FLC-resistant Candida albicans CPCC400616 assessed as assessed as inhibition of biofilm formation measured at 3 hrs by XTT reduction assay; format: functional
Candida albicans [11] = experiment: Antibiofilm activity against FLC-resistant Candida albicans CPCC400616 assessed as assessed as inhibition of biofilm formation measured at 6 hrs by XTT reduction assay; format: functional
Candida albicans [12] = experiment: Antibiofilm activity against FLC-resistant Candida albicans CPCC400616 assessed as assessed as inhibition of biofilm formation measured at 18 hrs by XTT reduction assay; format: functional
Candida albicans [13] = experiment: Antibiofilm activity against FLC-resistant Candida albicans CPCC400616 assessed as assessed as inhibition of biofilm formation measured at 24 hrs by XTT reduction assay; format: functional
Candida albicans [14] = experiment: Fungicidal activity against Candida albicans CPCC400616 assessed as minimum inhibitory concentration incubated for 48 hrs; format: functional
Candida albicans [15] = experiment: Fungicidal activity against Candida albicans CPCC400616 assessed as minimum fungicidal concentration incubated for 48 hrs; format: functional
Candida albicans [16] = experiment: […] for fungicidal activity against Candida albicans CPCC400616; format: functional
[17] = Cytotoxicity against human HEK293T cells assessed as inhibition of cell growth incubated for 4 hrs by MTT assay; format: toxicity, cell-based, HEK-293T
A549 = experiment: Cytotoxicity against human A549 cells assessed as inhibition of cell growth incubated for 4 hrs by MTT assay; format: functional, cell-based; settings: A549, 4 h
MCF7 = experiment: Cytotoxicity against human MCF7 cells assessed as inhibition of cell growth incubated for 4 hrs by MTT assay; format: functional, cell-based; settings: MCF7, 4 h
HepG2 = experiment: Cytotoxicity against human HepG2 cells assessed as inhibition of cell growth incubated for 4 hrs by MTT assay; format: functional, cell-based; settings: HepG2, 4 h

SMILES | MIC (Candida albicans [1]) [µg/mL] | MIC (Candida albicans [2]) [µg/mL] | MIC (Candida tropicalis) [µg/mL] | MIC (Cryptococcus neoformans) [µg/mL] | MIC (Candida parapsilosis) [µg/mL] | MIC (Nakaseomyces glabratus) [µg/mL] | MIC (Pichia kudriavzevii) [µg/mL] | MIC (Aspergillus fumigatus) [µg/mL] | further results
COc1cccc(-c2ccc(C3=NC(Cn4ccnc4)(c4ccc(F)cc4)CO3)s2)c1 (centres undefined) | > 64 | > 64 | > 64 | > 64 | > 64 | > 64 | > 64 | > 64 | 
Fc1ccc(-c2ccc(C3=NC(Cn4ccnc4)(c4ccc(F)cc4)CO3)s2)cc1 (centres undefined) | 2 (≈ 4.75 µM) | 1 (≈ 2.37 µM) | 0.5 (≈ 1.19 µM) | 8 (≈ 19 µM) | > 64 | > 64 | 16 (≈ 38 µM) | 8 (≈ 19 µM) | 
Fc1ccc(C2(Cn3ccnc3)COC(c3ccc(-c4ccccc4Cl)s3)=N2)cc1 (centres undefined) | 0.5 (≈ 1.14 µM) | 0.25 (≈ 0.571 µM) | > 64 | > 64 | > 64 | > 64 | > 64 | 16 (≈ 36.5 µM) | 
Fc1ccc(C2(Cn3ccnc3)COC(c3ccc(-c4ccccc4)s3)=N2)cc1 (centres undefined) | 0.06 (≈ 0.149 µM) | 0.06 (≈ 0.149 µM) | 0.06 (≈ 0.149 µM) | 0.5 (≈ 1.24 µM) | 0.25 (≈ 0.62 µM) | 0.125 (≈ 0.31 µM) | 0.125 (≈ 0.31 µM) | 4 (≈ 9.91 µM) | MIC (Candida albicans [3]): 1 µg/mL (≈ 2.48 µM); MIC (Candida albicans [4]): 0.25 µg/mL (≈ 0.62 µM); MIC (Candida albicans [5]): 0.25 µg/mL (≈ 0.62 µM); MIC (Candida albicans [6]): 1 µg/mL (≈ 2.48 µM); MIC (Candida albicans [7]): 0.5 µg/mL (≈ 1.24 µM); MIC (Candida albicans [8]): 0.25 µg/mL (≈ 0.62 µM); MIC (Candida albicans [9]): 1 µg/mL (≈ 2.48 µM); MIC50 (Candida albicans [10]): 0.25 µg/mL (≈ 0.62 µM); MIC50 (Candida albicans [11]): 2 µg/mL (≈ 4.96 µM); MIC50 (Candida albicans [12]): 4 µg/mL (≈ 9.91 µM); MIC50 (Candida albicans [13]): 16 µg/mL (≈ 39.7 µM); MIC (Candida albicans [14]): 0.06 µg/mL (≈ 0.149 µM); MFC (Candida albicans [15]): 0.5 µg/mL (≈ 1.24 µM); Ratio (Candida albicans [16]): 8; IC50 at 4 h [17]: 14.2 µM; IC50 (A549): > 50 µM; IC50 (MCF7): > 50 µM; IC50 (HepG2): 10.5 µM
CCc1ccc(-c2ccc(C3=NC(Cn4ccnc4)(c4ccc(F)cc4)CO3)s2)cc1 (centres undefined) | 4 (≈ 9.27 µM) | 4 (≈ 9.27 µM) | > 64 | > 64 | 16 (≈ 37.1 µM) | 64 (≈ 148 µM) | > 64 | 4 (≈ 9.27 µM) | 
CCc1ccccc1-c1ccc(C2=NC(Cn3ccnc3)(c3ccc(F)cc3)CO2)s1 (centres undefined) | > 64 | > 64 | > 64 | > 64 | > 64 | > 64 | > 64 | > 64 | 
Fc1ccc(C2(Cn3ccnc3)COC(c3ccc(-c4cccc(OC(F)(F)F)c4)s3)=N2)cc1 (centres undefined) | > 64 | > 64 | > 64 | > 64 | > 64 | > 64 | > 64 | > 64 | 
Fc1ccc(C2(Cn3ccnc3)COC(c3ccc(-c4ccc(OCC(F)(F)F)cc4)s3)=N2)cc1 (centres undefined) | > 64 | > 64 | > 64 | > 64 | > 64 | > 64 | > 64 | > 64 | 
COc1cccc(C2(Cn3ccnc3)COC(c3ccc(-c4ccccc4)s3)=N2)c1 (centres undefined) | 0.125 (≈ 0.301 µM) | 1 (≈ 2.41 µM) | 1 (≈ 2.41 µM) | > 64 | > 64 | > 64 | > 64 | > 64 | 
FC(F)(F)c1ccc(C2(Cn3ccnc3)COC(c3ccc(-c4ccccc4)s3)=N2)cc1 (centres undefined) | 0.125 (≈ 0.276 µM) | 0.5 (≈ 1.1 µM) | > 64 | > 64 | > 64 | > 64 | > 64 | > 64 | 
Clc1cccc(C2(Cn3ccnc3)COC(c3ccc(-c4ccccc4)s3)=N2)c1 (centres undefined) | > 64 | > 64 | > 64 | 2 (≈ 4.76 µM) | 4 (≈ 9.53 µM) | > 64 | > 64 | > 64 | 
N#Cc1cccc(-c2ccc(C3=NC(Cn4ccnc4)(c4ccc(F)cc4)CO3)s2)c1 (centres undefined) | 0.5 (≈ 1.17 µM) | 0.5 (≈ 1.17 µM) | 1 (≈ 2.33 µM) | 2 (≈ 4.67 µM) | > 64 | > 64 | > 64 | 16 (≈ 37.3 µM) | 
Cc1cccc(C2(Cn3ccnc3)COC(c3ccc(-c4ccccc4)s3)=N2)c1 (centres undefined) | 0.125 (≈ 0.313 µM) | 2 (≈ 5.01 µM) | 4 (≈ 10 µM) | 0.5 (≈ 1.25 µM) | > 64 | > 64 | > 64 | > 64 | MIC (Candida albicans [3]): 8 µg/mL (≈ 20 µM); MIC (Candida albicans [4]): 8 µg/mL (≈ 20 µM); MIC (Candida albicans [5]): 4 µg/mL (≈ 10 µM); MIC (Candida albicans [6]): 4 µg/mL (≈ 10 µM); MIC (Candida albicans [7]): 0.5 µg/mL (≈ 1.25 µM); MIC (Candida albicans [8]): 4 µg/mL (≈ 10 µM); MIC (Candida albicans [9]): 4 µg/mL (≈ 10 µM)

Source: ChEMBL document CHEMBL5131399, “Broadening antifungal spectrum and improving metabolic stablity based on a scaffold strategy: Design, synthesis, and evaluation of novel 4-phenyl-4,5-dihydrooxazole derivatives as potent fungistatic and fungicidal reagents” (Eur J Med Chem, 2022)
